The record followed here is patent publication US10150760B2, “Compounds for use in preparing heterocyclic triazole agonists of the APJ receptor” (AMGEN INC., priority 2016, dated 2018).

The structures appear in SMILES notation.

The target in this test is human APJ receptor (Homo sapiens (Human), UniProt P35414). The test is described as follows: [35S]GTPγS binding assay on membranes from CHO cells stably expressing human APJ receptor. Type of test: biochemical. Conditions: read-out: Activity hAPJ SPA EC50 IP. Summed up: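 Agonist-driven [35S]GTPγS (0.2 nM) binding was measured over 90 min at room temperature on human APJ-expressing CHO membranes with bead capture, in buffer containing 3 μM GDP, 200 mM NaCl and 5 mM MgCl2 (pH 7.5). Excess unlabelled GTPγS (100 μM) gave nonspecific signal; EC50 from non-linear fits.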
Chain of human APJ receptor (P35414 whole entry): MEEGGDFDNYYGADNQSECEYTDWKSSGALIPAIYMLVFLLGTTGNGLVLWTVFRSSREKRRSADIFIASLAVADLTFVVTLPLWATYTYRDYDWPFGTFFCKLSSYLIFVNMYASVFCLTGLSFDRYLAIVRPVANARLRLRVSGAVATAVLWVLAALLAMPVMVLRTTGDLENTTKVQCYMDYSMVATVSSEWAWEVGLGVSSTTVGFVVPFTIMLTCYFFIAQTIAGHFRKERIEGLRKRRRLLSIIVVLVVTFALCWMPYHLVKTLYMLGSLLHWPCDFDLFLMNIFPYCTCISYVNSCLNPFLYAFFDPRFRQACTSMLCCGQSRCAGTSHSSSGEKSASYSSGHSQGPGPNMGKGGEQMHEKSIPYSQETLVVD
(GTPγS is a poorly hydrolysed GTP analogue; its binding reports G protein activation.)
Broadly, the EC50 is the concentration giving half of the maximal effect. For the compound `COc1cccc(OC)c1-n1c(NS(=O)(=O)[C@@H](C)[C@H](OC)c2ncc(Cl)cn2)nnc1[C@@H]1CC(=O)N(C)C1` (single isomer, unassigned) [Example 294.0, (1R,2S)-1-(5-chloropyrimidin-2-yl)-N-(4-(2,6-dimethoxyphenyl)-5-((R)-1-methyl-5-oxopyrrolidin-3-yl)-4H-1,2,4-triazol-3-yl)-1-methoxypropane-2-sulfonamide or (1R,2S)-1-(5-chloropyrimidin-2-yl)-N-(4-(2,6-dimethoxyphenyl)-5-((S)-1-methyl-5-oxopyrrolidin-3-yl)-4H-1,2,4-triazol-3-yl)-1-methoxypropane-2-sulfonamide], the EC50 was 270 nM. For `CO[C@H](c1ncc(Cl)cn1)[C@H](C)S(=O)(=O)Nc1nnc([C@H]2CCOC2)n1C(C)C` (single isomer, unassigned) [Example 297.0, (1R,2S)-1-(5-chloropyrimidin-2-yl)-N-(4-isopropyl-5-((R)-tetrahydrofuran-3-yl)-4H-1,2,4-triazol-3-yl)-1-methoxypropane-2-sulfonamide or (1R,2S)-1-(5-chloropyrimidin-2-yl)-N-(4-isopropyl-5-((S)-tetrahydrofuran-3-yl)-4H-1,2,4-triazol-3-yl)-1-methoxypropane-2-sulfonamide], the concentration giving a half-maximal response (EC50) is 1470 nM. Then `CO[C@H](c1ncc(Cl)cn1)[C@H](C)S(=O)(=O)Nc1nnc([C@H]2CCOC2)n1C(C)C` (single isomer, unassigned) [Example 298.0, (1R,2S)-1-(5-chloropyrimidin-2-yl)-N-(4-isopropyl-5-((R)-tetrahydrofuran-3-yl)-4H-1,2,4-triazol-3-yl)-1-methoxypropane-2-sulfonamide or (1R,2S)-1-(5-chloropyrimidin-2-yl)-N-(4-isopropyl-5-((S)-tetrahydrofuran-3-yl)-4H-1,2,4-triazol-3-yl)-1-methoxypropane-2-sulfonamide], with 1890 nM; and `CO[C@H](c1ncc(Cl)cn1)[C@H](C)S(=O)(=O)Nc1nnc([C@H]2CCC(C)(C)O2)n1C(C)C` (single isomer, unassigned) [Example 299.0, (1R,2S)-1-(5-chloropyrimidin-2-yl)-N-(5-((R)-5,5-dimethyltetrahydrofuran-2-yl)-4-isopropyl-4H-1,2,4-triazol-3-yl)-1-methoxypropane-2-sulfonamide or (1R,2S)-1-(5-chloropyrimidin-2-yl)-N-(5-((S)-5,5-dimethyltetrahydrofuran-2-yl)-4-isopropyl-4H-1,2,4-triazol-3-yl)-1-methoxypropane-2-sulfonamide], with 940 nM; and `CO[C@H](c1ncc(Cl)cn1)[C@H](C)S(=O)(=O)Nc1nnc([C@H]2CCC(C)(C)O2)n1C(C)C` (single isomer, unassigned) [Example 300.0, (1R,2S)-1-(5-chloropyrimidin-2-yl)-N-(5-((R)-5,5-dimethyltetrahydrofuran-2-yl)-4-isopropyl-4H-1,2,4-triazol-3-yl)-1-methoxypropane-2-sulfonamide or (1R,2S)-1-(5-chloropyrimidin-2-yl)-N-(5-((S)-5,5-dimethyltetrahydrofuran-2-yl)-4-isopropyl-4H-1,2,4-triazol-3-yl)-1-methoxypropane-2-sulfonamide], with 1400 nM.

On to `CO[C@H](c1ncc(Cl)cn1)[C@H](C)S(=O)(=O)Nc1nnc([C@H]2COCCO2)n1C(C)C` (single isomer, unassigned) [Example 301.0, (1R,2S)-N-(5-((S)-1,4-dioxan-2-yl)-4-isopropyl-4H-1,2,4-triazol-3-yl)-1-(5-chloropyrimidin-2-yl)-1-methoxypropane-2-sulfonamide or (1R,2S)-N-(5-((R)-1,4-dioxan-2-yl)-4-isopropyl-4H-1,2,4-triazol-3-yl)-1-(5-chloropyrimidin-2-yl)-1-methoxypropane-2-sulfonamide], for which the EC50 amounted to 2900 nM. Then `CO[C@H](c1ncc(Cl)cn1)[C@H](C)S(=O)(=O)Nc1nnc([C@H]2COCCO2)n1C(C)C` (single isomer, unassigned) [Example 302.0, (1R,2S)-N-(5-((S)-1,4-dioxan-2-yl)-4-isopropyl-4H-1,2,4-triazol-3-yl)-1-(5-chloropyrimidin-2-yl)-1-methoxypropane-2-sulfonamide or (1R,2S)-N-(5-((R)-1,4-dioxan-2-yl)-4-isopropyl-4H-1,2,4-triazol-3-yl)-1-(5-chloropyrimidin-2-yl)-1-methoxypropane-2-sulfonamide], with 710 nM; and `COCCn1c(NS(=O)(=O)[C@@H](C)[C@H](OC)c2ncc(Cl)cn2)nnc1[C@H]1CCOC1` (single isomer, unassigned) [Example 309.0, (1R,2S)-1-(5-chloropyrimidin-2-yl)-1-methoxy-N-(4-(2-methoxyethyl)-5-((R)-tetrahydrofuran-3-yl)-4H-1,2,4-triazol-3-yl)propane-2-sulfonamide or (1R,2S)-1-(5-chloropyrimidin-2-yl)-1-methoxy-N-(4-(2-methoxyethyl)-5-((S)-tetrahydrofuran-3-yl)-4H-1,2,4-triazol-3-yl)propane-2-sulfonamide], with 2600 nM. Then `COCCn1c(NS(=O)(=O)[C@@H](C)[C@H](OC)c2ncc(Cl)cn2)nnc1[C@H]1CCOC1` (single isomer, unassigned) [Example 310.0, (1R,2S)-1-(5-chloropyrimidin-2-yl)-1-methoxy-N-(4-(2-methoxyethyl)-5-((R)-tetrahydrofuran-3-yl)-4H-1,2,4-triazol-3-yl)propane-2-sulfonamide or (1R,2S)-1-(5-chloropyrimidin-2-yl)-1-methoxy-N-(4-(2-methoxyethyl)-5-((S)-tetrahydrofuran-3-yl)-4H-1,2,4-triazol-3-yl)propane-2-sulfonamide], with 540 nM; and `COCCn1c(NS(=O)(=O)[C@@H](C)[C@H](OC)c2ncc(Cl)cn2)nnc1[C@@H]1COCCO1` (single isomer, unassigned) [Example 311.0, (1R,2S)-N-(5-((R)-1,4-dioxan-2-yl)-4-(2-methoxyethyl)-4H-1,2,4-triazol-3-yl)-1-(5-chloropyrimidin-2-yl)-1-methoxypropane-2-sulfonamide or (1R,2S)-N-(5-((S)-1,4-dioxan-2-yl)-4-(2-methoxyethyl)-4H-1,2,4-triazol-3-yl)-1-(5-chloropyrimidin-2-yl)-1-methoxypropane-2-sulfonamide], with 1700 nM. As for `COCCn1c(NS(=O)(=O)[C@@H](C)[C@H](OC)c2ncc(Cl)cn2)nnc1[C@@H]1COCCO1` (single isomer, unassigned) [Example 312.0, (1R,2S)-N-(5-((R)-1,4-dioxan-2-yl)-4-(2-methoxyethyl)-4H-1,2,4-triazol-3-yl)-1-(5-chloropyrimidin-2-yl)-1-methoxypropane-2-sulfonamide or (1R,2S)-N-(5-((S)-1,4-dioxan-2-yl)-4-(2-methoxyethyl)-4H-1,2,4-triazol-3-yl)-1-(5-chloropyrimidin-2-yl)-1-methoxypropane-2-sulfonamide], the figure is 1900 nM.
